molecular target: interaction between p53 and MDM2 proteins (recombinant GST-tagged MDM2 / p53-peptide) (Homo sapiens, UniProt Q00987); test: HTRF assay of inhibition of the p53-MDM2 interaction (GST-MDM2 binding to biotinylated p53 peptide); conditions: 90 nM biotinylated p53 peptide, 160 ng/ml GST-MDM2, 37° C. 1 h
Method: The ability of the compounds to inhibit the interaction between p53 and MDM2 proteins was measured by an HTRF (homogeneous time-resolved fluorescence) assay in which recombinant GST-tagged MDM2 binds to a peptide that resembles the MDM2-interacting region of p53 (Lane et al.). Binding of GST-MDM2 protein and p53-peptide (biotinylated on its N-terminal end) is registered by the FRET (fluorescence resonance energy transfer) between Europium (Eu)-labeled anti-GST antibody and streptavidin-conjugated Allophycocyanin (APC).
Test is performed in black flat-bottom 384-well plates (Costar) in a total volume of […] containing: 90 nM biotinylated peptide, 160 ng/ml GST-MDM2, 20 nM streptavidin-APC (PerkinElmerWallac), 2 nM Eu-labeled anti-GST-antibody (PerkinElmerWallac) 0.2% bovine serum albumin (BSA), 1 mM dithiothreitol (DTT) and 20 mM […] (TBS) buffer as follows: Add 10 μL of GST-MDM2 (640 ng/ml working solution) in reaction buffer to each well. Add 10 μL diluted compounds (1:5 dilution in reaction buffer) to each well mix by shaking. Add 20 μL biotinylated p53 peptide (180 nM working solution) in reaction buffer to each well and mix on shaker. Incubate at 37° C. for 1 h. Add 20 μL streptavidin-APC and Eu-anti-GST antibody mixture (6 nM Eu-anti-GST and 60 nM streptavidin-APC working solution) in TBS buffer with 0.2% BSA, shake at room temperature for 30 minutes and read using a TRF-capable plate reader at 665 and 615 nm (Victor 5, Perkin ElmerWallac). If not specified, the reagents were purchased from Sigma Chemical Co.

Sequence of interaction between p53 and MDM2 proteins (recombinant GST-tagged MDM2 / p53-peptide) (Q00987 whole entry): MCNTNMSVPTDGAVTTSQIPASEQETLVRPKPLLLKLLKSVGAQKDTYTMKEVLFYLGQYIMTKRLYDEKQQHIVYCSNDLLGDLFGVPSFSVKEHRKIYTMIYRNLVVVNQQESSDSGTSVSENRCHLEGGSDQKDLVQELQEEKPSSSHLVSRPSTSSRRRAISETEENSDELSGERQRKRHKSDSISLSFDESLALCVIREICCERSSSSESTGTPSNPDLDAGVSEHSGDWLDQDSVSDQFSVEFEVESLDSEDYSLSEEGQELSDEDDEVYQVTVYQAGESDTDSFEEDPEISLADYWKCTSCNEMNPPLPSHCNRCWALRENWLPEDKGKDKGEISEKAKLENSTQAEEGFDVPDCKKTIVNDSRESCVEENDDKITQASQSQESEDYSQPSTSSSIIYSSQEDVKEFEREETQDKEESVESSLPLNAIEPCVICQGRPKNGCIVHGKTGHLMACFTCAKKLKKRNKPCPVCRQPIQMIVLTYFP

`O=c1cccc2n1[C@@H](c1ccc(Cl)cc1)[C@@H](c1ccc(Cl)cc1)N2S(=O)(=O)c1ccsc1` (racemic) [Example 10, rac-cis-2,3-Bis-(4-chloro-phenyl)-1-(thiophene-3-sulfonyl)-2,3-dihydro-1H-imidazo[1,2-a]pyridin-5-one] and `O=C(O)c1cccc(S(=O)(=O)N2c3cccc(=O)n3[C@@H](c3ccc(Cl)cc3)[C@H]2c2ccc(Cl)cc2)c1` (racemic) [Example 82, rac-3-[cis-2,3-Bis-(4-chloro-phenyl)-5-oxo-2,3-dihydro-5H-imidazo[1,2-a]pyridine-1-sulfonyl]-benzoic acid] are within 1.5-fold of each other in IC50: 710 nM for the first, 770 nM for the second.

Going from `O=C(CN1CCN(C(=O)c2ccc3n(c2=O)[C@@H](c2ccc(Cl)cc2)[C@@H](c2ccc(Cl)cc2)N3S(=O)(=O)c2ccccc2F)CC1)N1CCOCC1` (racemic) [Example 51, rac-cis-2,3-Bis-(4-chloro-phenyl)-1-(2-fluoro-benzenesulfonyl)-6-[4-(2-morpholin-4-yl-2-oxo-ethyl)-piperazine-1-carbonyl]-2,3-dihydro-1H-imidazo[1,2-a]pyridin-5-one] to `COC(=O)c1cccc(S(=O)(=O)N2c3ccc(C(=O)N4CCN(CC(=O)N5CCOCC5)CC4)c(=O)n3[C@@H](c3ccc(Cl)cc3)[C@H]2c2ccc(Cl)cc2)c1` (racemic) [Example 62, rac-3-{cis-2,3-Bis-(4-chloro-phenyl)-6-[4-(2-morpholin-4-yl-2-oxo-ethyl)-piperazine-1-carbonyl]-5-oxo-2,3-dihydro-5H-imidazo[1,2-a]pyridine-1-sulfonyl}-benzoic acid methyl ester], the IC50 falls from 710 nM to 470 nM (1.5-fold). The second is the more potent here.

`COC(=O)c1cccc(S(=O)(=O)N2c3ccc(C(=O)N4CCN(C)CC4)c(=O)n3[C@@H](c3ccc(Cl)cc3)[C@H]2c2ccc(Cl)cc2)c1` (racemic) [Example 63, rac-3-[cis-2,3-Bis-(4-chloro-phenyl)-6-(4-methyl-piperazine-1-carbonyl)-5-oxo-2,3-dihydro-5H-imidazo[1,2-a]pyridine-1-sulfonyl]-benzoic acid methyl ester] and `COC(=O)c1cccc(S(=O)(=O)N2c3ccc(C(=O)N4CCN(CCn5ccnc5)CC4)c(=O)n3[C@@H](c3ccc(Cl)cc3)[C@H]2c2ccc(Cl)cc2)c1` (racemic) [Example 66, rac-3-{cis-2,3-Bis-(4-chloro-phenyl)-6-[4-(2-imidazol-1-yl-ethyl)-piperazine-1-carbonyl]-5-oxo-2,3-dihydro-5H-imidazo[1,2-a]pyridine-1-sulfonyl}-benzoic acid methyl ester] are within 1.5-fold of each other in IC50: 460 nM for the first, 670 nM for the second.

Going from `N#Cc1cc(S(=O)(=O)N2c3cccc(=O)n3[C@@H](c3ccc(Cl)cc3)[C@H]2c2ccc(Cl)cc2)ccc1F` (single isomer, unassigned) [Example 84, 5-[(2R*,3S*)-2,3-Bis-(4-chloro-phenyl)-5-oxo-2,3-dihydro-5H-imidazo[1,2-a]pyridine-1-sulfonyl]-2-fluoro-benzonitrile] to `N#Cc1cccc(S(=O)(=O)N2c3ccc(C(=O)N4CCOCC4)c(=O)n3[C@@H](c3ccc(Cl)cc3)[C@H]2c2ccc(Cl)cc2)c1` (single isomer, unassigned) [Example 91, 3-[2R*,3S*-bis-(4-chloro-phenyl)-6-(morpholine-4-carbonyl)-5-oxo-2,3-dihydro-5H-imidazo[1,2-a]pyridine-1-sulfonyl]-benzonitrile], the IC50 rises from 500 nM to 1600 nM (3.2-fold).

First: N#Cc1cc(S(=O)(=O)N2c3cccc(=O)n3[C@@H](c3ccc(Cl)cc3)[C@H]2c2ccc(Cl)cc2)ccc1F (single isomer, unassigned) [Example 85, 5-[(2R*,3S*)-2,3-Bis-(4-chloro-phenyl)-5-oxo-2,3-dihydro-5H-imidazo[1,2-a]pyridine-1-sulfonyl]-2-fluoro-benzonitrile]
Second: N#Cc1cccc(S(=O)(=O)N2c3ccc(C(=O)N4CCOCC4)c(=O)n3[C@H](c3ccc(Cl)cc3)[C@@H]2c2ccc(Cl)cc2)c1 (single isomer, unassigned) [Example 92, 3-[2R*,3S*-bis-(4-chloro-phenyl)-6-morpholine-4-carbonyl)-5-oxo-2,3-dihydro-5H-imidazo[1,2-a]pyridine-1-sulfonyl]-benzonitrile]
The IC50 of the first is 3.1-fold lower: 220 nM for the first, 690 nM for the second.
